# Assay results from US20230406865A1, “CRYSTAL FORM OF FREE BASE OF INHIBITOR CONTAINING BICYCLIC RING DERIVATIVE AND PREPARATION METHOD AND APPLICATION OF CRYSTAL FORM” (SHANGHAI HANSOH BIOMEDICAL CO., LTD., priority 2020, published 2023).
# Legend:
# RET kinase = target: T1, RET kinase (Homo sapiens, UniProt P07949); test: HTRF kinase activity inhibition, RET wild-type; type: biochemical; conditions: ATP at Km
# T1 construct: purchased Carna 08-159
# How it was run: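 HTRF (KinEASE-TK) kinase assay with recombinant RET wild-type, RET V804M, RET V804L and KIF5B-RET enzymes plus ATP.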
# KDR kinase = target: T2, KDR kinase (Homo sapiens, UniProt P35968); test: HTRF kinase activity inhibition, KDR; type: biochemical; conditions: for IC50: HTRF, ATP at Km; for Ratio (KDR/RET): KDR IC50 / RET IC50
# T2 construct: purchased Carna 08-191
# T2 sequence (P35968 20-1356): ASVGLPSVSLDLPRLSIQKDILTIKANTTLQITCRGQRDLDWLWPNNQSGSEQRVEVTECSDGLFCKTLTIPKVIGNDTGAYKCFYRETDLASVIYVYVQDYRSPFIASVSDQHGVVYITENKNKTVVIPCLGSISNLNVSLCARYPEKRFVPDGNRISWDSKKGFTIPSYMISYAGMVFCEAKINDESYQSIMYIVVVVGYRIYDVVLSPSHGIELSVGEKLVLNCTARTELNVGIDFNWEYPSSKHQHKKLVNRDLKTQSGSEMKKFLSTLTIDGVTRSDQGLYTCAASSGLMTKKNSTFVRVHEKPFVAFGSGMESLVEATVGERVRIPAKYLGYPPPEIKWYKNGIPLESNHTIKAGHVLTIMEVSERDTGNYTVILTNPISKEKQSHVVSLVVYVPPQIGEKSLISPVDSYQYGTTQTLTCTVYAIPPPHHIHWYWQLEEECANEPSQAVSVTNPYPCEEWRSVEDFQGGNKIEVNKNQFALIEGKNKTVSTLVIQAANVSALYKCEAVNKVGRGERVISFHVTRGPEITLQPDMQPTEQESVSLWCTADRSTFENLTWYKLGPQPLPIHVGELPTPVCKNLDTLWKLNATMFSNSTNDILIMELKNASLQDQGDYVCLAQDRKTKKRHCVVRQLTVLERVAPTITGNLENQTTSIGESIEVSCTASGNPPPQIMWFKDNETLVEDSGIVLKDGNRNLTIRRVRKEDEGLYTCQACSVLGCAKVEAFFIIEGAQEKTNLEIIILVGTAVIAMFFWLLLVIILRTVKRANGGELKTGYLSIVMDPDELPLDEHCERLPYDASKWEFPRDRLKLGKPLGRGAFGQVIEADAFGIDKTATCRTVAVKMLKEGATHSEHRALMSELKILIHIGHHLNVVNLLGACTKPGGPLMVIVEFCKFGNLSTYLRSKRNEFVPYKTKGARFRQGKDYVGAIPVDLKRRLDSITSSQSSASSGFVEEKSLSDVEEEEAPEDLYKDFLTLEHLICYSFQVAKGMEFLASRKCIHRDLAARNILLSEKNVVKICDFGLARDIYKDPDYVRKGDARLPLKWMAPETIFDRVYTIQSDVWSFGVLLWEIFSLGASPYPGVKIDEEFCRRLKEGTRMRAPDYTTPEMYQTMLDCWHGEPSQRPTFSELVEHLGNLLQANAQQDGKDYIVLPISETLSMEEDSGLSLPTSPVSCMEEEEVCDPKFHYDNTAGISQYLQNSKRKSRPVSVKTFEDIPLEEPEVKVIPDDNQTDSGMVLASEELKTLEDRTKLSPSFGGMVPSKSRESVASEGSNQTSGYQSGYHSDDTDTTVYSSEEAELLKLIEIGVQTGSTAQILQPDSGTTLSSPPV
# How it was run: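 Inhibition of KDR kinase activity measured by homogeneous time-resolved fluorescence with a tyrosine-kinase KinEASE substrate kit and ATP.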
# [1] = system: TT cells (MTC, RET C634W); test: Inhibition of proliferation of TT cells (CellTiter-Glo, 72 h); type: cell-based; conditions: Homo sapiens
# How it was run: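 TT cells seeded overnight, then exposed to compound dilutions for 72 h at 37 °C, 5% CO2, with a solvent control. Viability read by CellTiter-Glo luminescence; IC50 from nonlinear regression of inhibition rate versus concentration.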
# Ba/F3 KIF5B-RET cells = target: T3, Ba/F3 KIF5B-RET cells (Homo sapiens, UniProt P07949); test: Inhibition of proliferation of Ba/F3 KIF5B-RET cells (CellTiter-Glo); type: cell-based; conditions: 72 to 144 hours
# T3 construct: fused on or other part: P33176 (Kinesin-1 heavy chain)
# T3 sequence (P07949 whole entry, change not shown, the tested form may be a part): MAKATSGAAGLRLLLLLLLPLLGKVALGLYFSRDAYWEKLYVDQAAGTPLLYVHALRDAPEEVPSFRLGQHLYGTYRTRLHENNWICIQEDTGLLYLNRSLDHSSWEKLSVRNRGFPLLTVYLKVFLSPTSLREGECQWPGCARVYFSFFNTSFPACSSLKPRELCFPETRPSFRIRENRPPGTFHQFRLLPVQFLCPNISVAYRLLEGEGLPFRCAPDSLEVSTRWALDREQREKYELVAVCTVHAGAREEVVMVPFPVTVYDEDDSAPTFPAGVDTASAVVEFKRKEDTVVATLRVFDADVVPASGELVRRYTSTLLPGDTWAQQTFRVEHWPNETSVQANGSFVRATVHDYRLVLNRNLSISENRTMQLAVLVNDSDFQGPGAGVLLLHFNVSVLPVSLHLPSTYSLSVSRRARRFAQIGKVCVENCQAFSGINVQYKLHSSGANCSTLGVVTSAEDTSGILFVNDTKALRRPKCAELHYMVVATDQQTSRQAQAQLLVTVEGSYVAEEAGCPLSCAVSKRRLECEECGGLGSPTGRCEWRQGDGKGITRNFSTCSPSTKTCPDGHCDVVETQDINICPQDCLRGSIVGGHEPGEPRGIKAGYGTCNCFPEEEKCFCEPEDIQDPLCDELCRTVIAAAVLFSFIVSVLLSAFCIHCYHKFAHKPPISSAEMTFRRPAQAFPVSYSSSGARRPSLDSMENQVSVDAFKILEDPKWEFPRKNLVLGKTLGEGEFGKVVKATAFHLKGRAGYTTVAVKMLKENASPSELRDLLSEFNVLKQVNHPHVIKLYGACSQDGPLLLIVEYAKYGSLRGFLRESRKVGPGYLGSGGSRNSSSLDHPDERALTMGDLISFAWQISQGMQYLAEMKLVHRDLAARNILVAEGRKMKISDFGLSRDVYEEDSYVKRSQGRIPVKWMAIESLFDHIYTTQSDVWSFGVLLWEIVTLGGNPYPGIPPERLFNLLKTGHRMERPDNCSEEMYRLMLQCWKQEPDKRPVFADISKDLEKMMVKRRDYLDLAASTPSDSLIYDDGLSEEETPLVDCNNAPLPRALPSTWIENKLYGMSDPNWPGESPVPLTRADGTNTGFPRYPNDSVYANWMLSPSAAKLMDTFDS
# Experimental: When Ba/F3 KIF5B-RET cells were cultured to the appropriate cell density, cells were collected, and the cells were adjusted to the appropriate cell concentration using complete medium, and the cell suspension was spread in a 96-well plate, 90 μL per well, and placed in the wall of a 37° C., 5% CO2 incubator overnight; compound solutions of different concentrations were prepared using DMSO and culture medium; a solvent control was set, and the compound solution was added to a 96-well plate with […] at 37° C. in a 5% CO2 incubator for 72 to 144 hours, CellTiter-Glo solution was added thereto and mixed well by shaking, incubated for 10 minutes in the dark, and read by BioTek Synergy H1 microplate reader.
# The IC50 values were obtained by using the luminescence signal values to calculate the inhibition rate, the concentrations and the inhibition rates were fitted to a nonlinear regression curve using Graphpad Prism software.
# [2] = Balb/C mouse pharmacokinetics, oral 5 mg/kg; type: in vivo, Balb/C mice; conditions: male, p.o. 5 mg/kg, plasma; for MRT: read-out: Average residence time MRT; for Cmax: read-out: Blood concentration Cmax; for AUC(0-t): read-out: Curve area AUC0-t; for AUC(0-inf): read-out: Curve area AUC0-∞; for half-life: read-out: Half-life t1/2 (converted); for Tmax: read-out: Peak time tmax
# Experimental: The pharmacokinetic behavior of the following compound embodiments, administered orally at a dose of 5 mg/kg in plasma in mice, was studied using Balb/C mice as test animals.
# Balb/C Mouse 6/embodiment, male, Shanghai Jiesijie Laboratory Animal Co., Ltd, Animal Production License No. (SCXK (Shanghai) 2013-0006 N0.311620400001794).
# Balb/C mice, males; p.o. after overnight fasting, respectively, at a dose of 5 mg/kg, administered in a volume of 10 mL/kg.
# 0.5% CMC-Na (1% Tween80) was dissolved by ultrasound, and prepared into clear solution or uniform suspension.
# Before and after administration, 0.1 mL of blood was collected from mice at 0, 0.5, 1, 2, 4, 6, 8 and 24 hours by orbital collection, placed in EDTA-K2 tubes, centrifuged at 6000 rpm at 4° C. for 6 minutes to separate plasma, and stored at −80° C.
# 2.5 Sample Handling: • 1) 40 μL of plasma sample was precipitated by adding 160 μL of acetonitrile, mixed and centrifuged at 3500×g for 5-20 minutes. • 2) 100 μL of the supernatant solution after treatment was taken to analyze the concentration of the test compound by LC/MS/MS.
# 2.6 Liquid Phase Analysis • Liquid phase conditions: Shimadzu LC-20AD pump • Mass spectrometry conditions: AB Sciex API 4000 mass spectrometer • Chromatographic column: phenomenex Gemiu 5 μM C18 50×4.6 mm • Mobile phase: Liquid A was 0.1% formic acid aqueous solution, liquid B was acetonitrile • Flow rate: 0.8 mL/min • Elution time: 0-4.0 minutes, the eluent was as follows:
# The main pharmacokinetic parameters were calculated by WinNonlin 6.1 and the results of the mouse pharmacokinetic experiments were shown in Table 13 below.
# T1 sequence (P07949 29-1114): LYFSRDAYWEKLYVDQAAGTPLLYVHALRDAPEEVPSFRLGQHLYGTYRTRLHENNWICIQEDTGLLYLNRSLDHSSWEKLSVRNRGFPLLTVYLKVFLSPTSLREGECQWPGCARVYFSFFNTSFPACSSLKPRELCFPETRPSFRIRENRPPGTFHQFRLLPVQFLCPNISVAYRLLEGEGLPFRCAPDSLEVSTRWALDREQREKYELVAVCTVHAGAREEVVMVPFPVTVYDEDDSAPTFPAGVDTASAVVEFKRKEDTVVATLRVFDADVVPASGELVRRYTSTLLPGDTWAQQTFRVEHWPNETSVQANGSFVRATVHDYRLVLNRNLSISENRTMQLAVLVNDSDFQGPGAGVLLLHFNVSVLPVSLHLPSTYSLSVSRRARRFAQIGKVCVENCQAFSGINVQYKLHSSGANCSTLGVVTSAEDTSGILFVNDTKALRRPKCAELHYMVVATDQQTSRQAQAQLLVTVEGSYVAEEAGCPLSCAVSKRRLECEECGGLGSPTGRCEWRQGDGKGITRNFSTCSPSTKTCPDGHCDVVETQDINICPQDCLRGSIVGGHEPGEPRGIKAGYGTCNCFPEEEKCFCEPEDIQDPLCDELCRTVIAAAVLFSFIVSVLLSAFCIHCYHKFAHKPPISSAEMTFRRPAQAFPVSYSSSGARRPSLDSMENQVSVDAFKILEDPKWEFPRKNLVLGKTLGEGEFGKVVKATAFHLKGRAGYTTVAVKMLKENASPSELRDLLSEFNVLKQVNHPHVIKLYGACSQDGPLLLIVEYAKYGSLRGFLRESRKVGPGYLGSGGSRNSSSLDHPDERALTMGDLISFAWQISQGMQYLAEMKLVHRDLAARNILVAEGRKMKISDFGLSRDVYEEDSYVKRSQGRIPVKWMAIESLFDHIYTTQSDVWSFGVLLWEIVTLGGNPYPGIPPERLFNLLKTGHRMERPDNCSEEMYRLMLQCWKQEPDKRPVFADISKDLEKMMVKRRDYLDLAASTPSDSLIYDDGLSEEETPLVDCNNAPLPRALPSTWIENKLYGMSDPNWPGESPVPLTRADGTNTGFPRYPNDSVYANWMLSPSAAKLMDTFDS
Compound,IC50 (RET kinase) [nM],IC50 (KDR kinase) [nM],Ratio (KDR/RET) (KDR kinase),IC50 [1] [nM],IC50 (Ba/F3 KIF5B-RET cells) [nM],MRT [2] [h],Cmax [2] [ng/mL],AUC(0-t) [2] [ng·h/mL],AUC(0-inf) [2] [ng·h/mL],half-life [2] [h],Tmax [2] [h]
"COc1ccc(CN2C3CC2CN(c2ccc(-c4cc(OCC[S+](C)[O-])cn5ncc(C#N)c45)cn2)C3)cn1 (stereo not shown) [Embodiment 1, 4-(6-(6-((6-Methoxypyridin-3-yl)methyl)-3,6-diazabicyclo[3.1.1]heptan-3-yl)pyridin-3-yl)-6-(2-(methylsulfinyl)ethoxy)pyrazolo[1,5-a]pyridine-3-carbonitrile]",0.47,28,59,11.5,24.6,–,–,–,–,–,–
"CC1(O)CN(c2cc(-c3ccc(N4CCC(C)(NC(=O)c5ncccc5Cl)CC4)nc3)c3c(C#N)cnn3c2)C1 [Embodiment 95, 3-Chloro-N-(1-(5-(3-cyano-6-(3-hydroxy-3-methylazetidin-1-yl)pyrazolo[1,5-a]pyridin-4-yl)pyridin-2-yl)-4-methylpiperidin-4-yl)picolinamide]",1,24,24,15,22.5,–,–,–,–,–,–
"COc1ccc(CN2C3CC2CN(c2ccc(-c4cc(OCC56CC(C(N)=O)(C5)C6)cn5ncc(C#N)c45)cn2)C3)cn1 [Embodiment 66, 3-(((3-Cyano-4-(6-(6-((6-methoxypyridin-3-yl)methyl)-3,6-diazabicyclo[3.1.1]heptan-3-yl)pyridin-3-yl)pyrazolo[1,5-a]pyridin-6-yl)oxy)methyl)bicyclo[1.1.1]pentane-1-carboxamide]",0.25,3,12,5.18,14.8,–,–,–,–,–,–
"COc1ncc(CN2C3CC2CN(c2ccc(-c4cc(OCC5(C#N)CCOCC5)cn5ncc(C#N)c45)cn2)C3)cc1F [Embodiment 60, 6-((4-Cyanotetrahydro-2H-pyran-4-yl)methoxy)-4-(6-(6-((5-fluoro-6-methoxypyridin-3-yl)methyl)-3,6-diazabicyclo[3.1.1]heptan-3-yl)pyridin-3-yl)pyrazolo[1,5-a]pyridine-3-carbonitrile]",0.58,257,445,28.4,18,5.56,3080,28000,28200,3.26,0.5
"COc1ccc(CN2C3CC2CN(c2ccc(-c4cc(OCC(C)(C)C#N)cn5ncc(C#N)c45)cn2)C3)cn1 [Embodiment 9, 6-(2-Cyano-2-methylpropoxy)-4-(6-(6-((6-methoxypyridin-3-yl)methyl)-3,6-diazabicyclo[3.1.1]heptan-3-yl)pyridin-3-yl)pyrazolo[1,5-a]pyridine-3-carbonitrile]",0.76,70,92,29.3,28.9,5.84,1920,16100,16400,4.2,0.5
"COc1ccc(CN2C3CC2CN(c2ccc(-c4cc(OC[C@H]5C[C@@](C)(O)C5)cn5ncc(C#N)c45)cn2)C3)cn1 [Embodiment 44, 6-((Cis-3-hydroxy-3-methylcyclobutyl)methoxy)-4-(6-(6-((6-methoxypyridin-3-yl)methyl)-3,6-diazabicyclo[3.1.1]heptan-3-yl)pyridin-3-yl)pyrazolo[1,5-a]pyridine-3-carbonitrile]",–,–,–,12.2,15.3,5.22,1620,14000,14000,3.45,0.5
"CNC(=O)C12CC(COc3cc(-c4ccc(N5CC6CC(C5)N6Cc5ccc(OC)nc5)nc4)c4c(C#N)cnn4c3)(C1)C2 [Embodiment 67, 3-(((3-Cyano-4-(6-(6-((6-methoxypyridin-3-yl)methyl)-3,6-diazabicyclo[3.1.1]heptan-3-yl)pyridin-3-yl)pyrazolo[1,5-a]pyridin-6-yl)oxy)methyl)-N-methylbicyclo[1.1.1]pentane-1-carboxamide]",0.25,4,16,6.84,5.33,–,–,–,–,–,–
"COc1ccc(CN2C3CC2CN(c2ccc(-c4cc(C#C[C@@H](C)O)cn5ncc(C#N)c45)cn2)C3)cn1 [Embodiment 22, 6-((R)-3-Hydroxybut-1-yn-1-yl)-4-(6-(6-((6-methoxypyridin-3-yl)methyl)-3,6-diazabicyclo[3.1.1]heptan-3-yl)pyridin-3-yl)pyrazolo[1,5-a]pyridine-3-carbonitrile]",0.32,24,75,20.7,16.9,–,–,–,–,–,–
"COc1ncc(CN2C3CC2CN(c2ccc(-c4cc(OCC5(C#N)CC5)cn5ncc(C#N)c45)cn2)C3)cc1F [Embodiment 55, 6-((1-Cyanocyclopropyl)methoxy)-4-(6-(6-((5-fluoro-6-methoxypyridin-3-yl)methyl)-3,6-diazabicyclo[3.1.1]heptan-3-yl)pyridin-3-yl)pyrazolo[1,5-a]pyridine-3-carbonitrile]",0.31,37.5,121,28.5,19.6,6.51,1940,21600,22100,4.26,2
"COc1ccc(CN2C3CC2CN(c2ccc(-c4cc(OCC56CC(C#N)(C5)C6)cn5ncc(C#N)c45)cn2)C3)cn1 [Embodiment 53, 6-((3-Cyanobicyclo[1.1.1]pentan-1-yl)methoxy)-4-(6-(6-((6-methoxypyridin-3-yl)methyl)-3,6-diazabicyclo[3.1.1]heptan-3-yl)pyridin-3-yl)pyrazolo[1,5-a]pyridine-3-carbonitrile]",0.8,21.6,27,24.7,30.6,–,–,–,–,–,–
"COc1ncc(CN2C3CC2CN(c2ccc(-c4cc(OCC5CC(C)(O)C5)cn5ncc(C#N)c45)cn2)C3)cc1F (stereo not drawn) [Embodiment 72, 4-(6-(6-((5-Fluoro-6-methoxypyridin-3-yl)methyl)-3,6-diazabicyclo[3.1.1]heptan-3-yl)pyridin-3-yl)-6-((cis-3-hydroxy-3-methylcyclobutyl)methoxy)pyrazolo[1,5-a]pyridine-3-carbonitrile]",0.37,7.4,20,13.9,8.59,–,–,–,–,–,–
